Data taken from article PMC8972196, “A Set of Experimentally Validated Decoys for the Human CC Chemokine Receptor 7 (CCR7) Obtained by Virtual Screening” (Frontiers in Pharmacology, 2022).
Like-named read-outs stand apart in the source and are kept apart here.

Target: T1, human CCR7 (Homo sapiens, UniProt P32248)
T1 construct: expressed in transfected cells
T1 sequence (P32248 25-378): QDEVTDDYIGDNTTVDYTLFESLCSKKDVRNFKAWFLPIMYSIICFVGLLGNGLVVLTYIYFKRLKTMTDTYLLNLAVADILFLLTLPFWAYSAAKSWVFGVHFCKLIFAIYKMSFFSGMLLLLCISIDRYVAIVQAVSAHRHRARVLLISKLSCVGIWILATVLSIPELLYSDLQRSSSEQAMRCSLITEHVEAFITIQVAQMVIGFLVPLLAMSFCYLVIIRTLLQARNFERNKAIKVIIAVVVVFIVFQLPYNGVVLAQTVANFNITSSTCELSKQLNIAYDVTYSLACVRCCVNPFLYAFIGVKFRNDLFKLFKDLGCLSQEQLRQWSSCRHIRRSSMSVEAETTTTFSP
Test: CCL19-induced calcium mobilization assay, U87.CD4 cells expressing CCR7
Format: cell-based
Conditions: for IC50: read-out: IC50 [μM] block CCL19 induced calcium signaling
In short: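 U87.CD4 cells stably expressing human CCR7, CXCR2 or CCR5 were seeded at 20,000 cells/well and incubated overnight at 37°C and 5% CO2. Cells were then incubated for 45 min at room temperature in the dark before calcium responses were recorded. CCR7 responses were induced with CCL19 and CXCR2 responses with CXCL8.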

[1] = CCL19 induced calcium signaling
[2] = classification as decoy or active on CCR7
[3] = CCL19-induced calcium signaling
[4] = classification of tested compounds as decoy or active

| SMILES | IC50 [1] [µM] | Decoy – 0 Active – 1 [2] | IC50 [3] [µM] | Decoy – 0 Active – 1 [4] |
| --- | --- | --- | --- | --- |
| Cn1nc(C(=O)N[C@@H]2CCCC[C@@H]2Cc2ccccc2)ccc1=O [C160, Cn1nc(C(=O)N[C@@H]2CCCC[C@@H]2Cc2ccccc2)ccc1=O] | > 50 | 0 | – | – |
| CC(C)[C@@H](NC(=O)CCN1CCCCCC1=O)c1ccccc1 [C112, CC(C)[C@@H](NC(=O)CCN1CCCCCC1=O)c1ccccc1] | – | – | > 50 | 0 |
| CC1CN(Cc2ccccc2)CCC1N(C)CC(=O)NC12CC3CC(CC(C3)C1)C2 (stereo not shown) [C281, CC1CN(Cc2ccccc2)CCC1N(C)CC(=O)NC12CC3CC(CC(C3)C1)C2] | > 50 | 0 | – | – |
| O=S(=O)(NC(c1cccnc1)C1CCOCC1)c1ccc2c(c1)CCO2 (stereo not shown) [C256, c1cc(cnc1)C(C2CCOCC2)NS(=O)(=O)c3ccc4c(c3)CCO4] | > 50 | 0 | – | – |
| CC1CCCCN1C(=O)CNc1cc(C(=O)N(C)C)ccc1Cl (stereo not shown) [C074, CC1CCCCN1C(=O)CNc1cc(C(=O)N(C)C)ccc1Cl] | – | – | > 10 | 0 |
| O=S(=O)(NC(c1ccccc1)c1ccccn1)c1ccc2c(c1)OCCCO2 (stereo not shown) [C252, c1ccc(cc1)C(c2ccccn2)NS(=O)(=O)c3ccc4c(c3)OCCCO4] | > 50 | 0 | – | – |
| O=C1CC(C(=O)NCc2csc3c2CCCC3)C2(CCCC2)O1 (stereo not shown) [C229, O=C1CC(C(=O)NCc2csc3c2CCCC3)C2(CCCC2)O1] | > 50 | 0 | – | – |
| CC[C@@H](NC(=O)c1cc(-c2cccc(OC)c2)n[nH]1)c1nc(C)c(C)s1 [C159, CC[C@@H](NC(=O)c1cc(-c2cccc(OC)c2)n[nH]1)c1nc(C)c(C)s1] | > 50 | 0 | – | – |
| CC(C)(C(=O)NC1CCC(C(=O)O)C1)c1cccc(F)c1 (stereo not shown) [C210, CC(C)(C(=O)NC1CCC(C(=O)[O-])C1)c1cccc(F)c1] | > 50 | 0 | – | – |
| Cc1ccc(C(=O)N2CCC3(CC2)CCC3(C)O)cc1N1CCCC1=O (stereo not shown) [C224, Cc1ccc(C(=O)N2CCC3(CC2)CCC3(C)O)cc1N1CCCC1=O] | > 50 | 0 | – | – |
| CN(C)C(=O)c1cccc(NC(=O)NCCC2=CCCCC2)c1 [C127, CN(C)C(=O)c1cccc(NC(=O)NCCC2=CCCCC2)c1] | – | – | > 50 | 0 |
| CN(C)[C@@H]1CCCC[C@H]1Nc1c(NCc2cc(C(F)(F)F)cc(C(F)(F)F)c2)c(=O)c1=O [C021, CN(C)[C@@H]1CCCC[C@H]1NC(C2=O)=C(NCC3=CC(C(F)(F)F)=CC(C(F)(F)F)=C3)C2=O] | – | – | > 50 | 0 |
| O=S(=O)(NCC(c1ccco1)N1CCc2ccccc21)c1ccc2c(c1)OCCO2 (stereo not shown) [C238, c1ccc2c(c1)CCN2C(CNS(=O)(=O)c3ccc4c(c3)OCCO4)c5ccco5] | > 50 | 0 | – | – |
| O=C(NCC(=O)N1CCCC1c1ccc2c(c1)OCO2)c1cc2ccccc2[nH]1 (stereo not shown) [C285, O=C(NCC(=O)N1CCCC1c1ccc2c(c1)OCO2)c1cc2ccccc2[nH]1] | > 50 | 0 | – | – |
| COC(=O)c1ccccc1Nc1c(NCC2CC2)c(=O)c1=O [C016, COC(=O)c1ccccc1Nc1c(NCC2CC2)c(=O)c1=O] | – | – | > 50 | 0 |
| CCOC(=O)NC(=S)Nc1ccccn1 [C047, S=C(NC1=NC=CC=C1)NC(OCC)=O] | – | – | > 30 | 0 |
| CCCNC(=O)CNc1ccc(C)c(C(=O)N(C)C)c1 [C066, CCCNC(=O)CNc1ccc(C)c(C(=O)N(C)C)c1] | – | – | > 10 | 0 |
| CC(C)C(CO)NC(=O)NC(c1cccc(F)c1F)C(F)(F)F (stereo not shown) [C191, CC(C)C(CO)NC(=O)NC(c1cccc(F)c1F)C(F)(F)F] | > 50 | 0 | – | – |
| COC(=O)c1ccc([C@H]2CC(=O)Nc3c2cnn3Cc2ccco2)cc1 [C158, COC(=O)c1ccc([C@H]2CC(=O)Nc3c2cnn3Cc2ccco2)cc1] | – | – | > 50 | 0 |
| CCc1ccc(C(NC(=O)C(=O)Nc2cccnc2C)C(C)(C)C)o1 (stereo not shown) [C069, CCc1ccc(C(NC(=O)C(=O)Nc2cccnc2C)C(C)(C)C)o1] | – | – | > 10 | 0 |
| CN(Cc1ccccc1N[C@H]1CCN(C)C1=O)C(=O)c1cccs1 [C124, CN(Cc1ccccc1N[C@H]1CCN(C)C1=O)C(=O)c1cccs1] | – | – | > 50 | 0 |
| O=C1CC(C(=O)N2CCCC2c2ccccc2)CN1Cc1cccnc1 (stereo not shown) [C228, O=C1CC(C(=O)N2CCCC2c2ccccc2)CN1Cc1cccnc1] | > 50 | 0 | – | – |
| CCn1cccc(NC(=O)N2CC(Cc3ccccc3Br)C2)c1=O [C079, CCn1cccc(NC(=O)N2CC(Cc3ccccc3Br)C2)c1=O] | – | – | > 50 | 0 |
